One may read the melting point as the temperature, or range, at which the solid turns liquid.

Results on two compounds are retold here after patent US6743810B2, “Indol-3-yl derivatives” (Merck Patent GmbH, priority 2000, dated 2004).

Structures can show the parent of a compound that is named as a salt.

In the case of `O=C(O)C[C@@H](c1ccccc1)c1c[nH]c2cc(OCCCNc3ccccn3)ccc12` (as salt: salt) [compound 46, (3S)-3-Phenyl-3-{6-[3-(pyridin-2-ylamino)propoxy]indol-3-yl}propionic acid], the melting point was 137 °C.
In the case of `O=C(O)CC(c1ccccc1)c1c[nH]c2cc(OCCCNc3ccccn3)ccc12` (centres unmarked) (as salt: trifluoroacetate) [compound 8, 3-Phenyl-3-{6-[3-(pyridin-2-ylamino)propoxy]indol-3-yl}propionic acid] it was 232 °C (dec.).
